Each block holds one compound with its values, some of them ahead of it.
Legend:
[1] = Endogenous MTX level in serum and CSF of patients who had received MTX; assay type: in vivo; conditions: 6 hours to 6 days after oral, parenteral or intrathecal MTX
Method: (§1) The samples in Table II were assayed by sequential binding procedures in accordance with the present invention, and they were assayed at multiple dilutions as previously described.

[2] = biological target: T1, folic acid reductase (binder factor) (Cavia porcellus, UniProt H0VYF1); assay: Cofactor dependency of ^3H-MTX binding; parameters: species or system guinea pig; conditions: for binding of ^3H-MTX with cofactor substituted for NADPH2: 1,000 times the optimal concentration of NADPH2; for inhibition of the MTX binding reaction: NADPH2 in slight excess, until concentration reached several thousand fold excess to NADPH2
T1 construct: NADPH as cofactor
T1 sequence (H0VYF1 1-187): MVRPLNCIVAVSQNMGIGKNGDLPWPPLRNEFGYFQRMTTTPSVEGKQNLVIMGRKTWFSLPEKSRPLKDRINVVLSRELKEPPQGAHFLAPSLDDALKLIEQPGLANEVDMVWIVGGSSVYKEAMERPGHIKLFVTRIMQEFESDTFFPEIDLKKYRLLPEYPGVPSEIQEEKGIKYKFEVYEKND
Method: (§2) The binder factor or folic acid reductase was prepared from guinea pig liver according to the method of Bertino et al, "Dihydrofolate Reductase From Guinea Pig Liver And Small Intestine,"Biochemical Pharmacology 15, pages 563 - 571, 1966 modified as noted below. The livers from freshly killed guinea pigs were rinsed in cold isotonic saline, suspended in 3 volumes (weight/volume) of the same, and homogenized in an Omnimixer (Sorvall, Inc.) for two minutes at 90 volts. The pH of the homogenate was adjusted to 5.1 with 1.0 N HCl. The homogenate was centrifuged at 12,000 × G for 15 minutes, and the pellet was discarded.
(§3) Ammonium sulfate was added to the supernatant to 55% of saturation at 4°C and, when necessary, the pH was adjusted to 6.0 with 1.0 N KOH. After standing for 30 minutes at 4°C, the precipitate was collected by centrifugation for 15 minutes at 12,000 × G and discarded. The supernatant was brought to a final ammonium sulfate concentration of 70% of saturation, again keeping the pH at 6.0, and stored overnight at 4°C. The resultant precipitate was recovered by centrifugation, as above, and dissolved in a minimal volume of 0.01 M potassium phosphate buffer, pH 7.0, which was 0.01 M with respect to KCl. The burgundy colored solution was applied to a Sephadex G-50 column (5 × 100 cm) equilibrated in 0.01 M potassium phosphate, pH 7.0, and 0.2 M KCl; the same buffer was used for elution of the sample.
The eluted material from the column was collected in 5 ml samples, and the binder factor or folic acid reductase eluted from the column behind the excluded volume which was marked by the hemoglobin peak. Sephadex permitted a rapid removal of ammonium sulfate and also gave a partial purification of the binder. Yields of 60% to 80% of the activity present in the crude homogenate were obtained with this methodology.
The maximum binding was identical to the binding observed in the presence of 0.1 μmole NADPH2.

[3] = assay type: physicochemical; conditions: 4°C, buffer A pH 6.0 with albumin
Method: The assay reaction is carried out in an aqueous solution of 0.01 M potassium phosphate, 0.15 M potassium chloride, pH 6.0, hereinafter referred to as buffer A. In the assay procedure, buffer A has added thereto about 1 mg of albumin per ml and other additons as noted.
As previously indicated, a binder cofactor comprising reduced nicotinamide adenine dinucleotide phosphate or NADPH2 was added to the reaction solution in the amounts noted below at the time of the assay.

[4] = biological target: T1, folic acid reductase (binder factor); assay: Direct binding of labeled folates to the binder preparation; parameters: species or system guinea pig; conditions: at the concentration of reactants used in the standard curves
Method: as §2
as §3, with “The burgundy colored solution was applied to a Sephadex G-50 column (5 × 100 cm) equilibrated in 0.01 M potassium phosphate, pH 7.0, and 0.2 M KCl; the same buffer was used for elution of the sample.” left out

[5] = biological target: T1, folic acid reductase (binder factor); assay: Specificity of the binder: competition with ^3H-MTX in direct competitive and sequential binding assays; parameters: species or system guinea pig; conditions: other folate derivatives up to 200 fold excess relative to ^3H-MTX
Method: as §2, with “discarded. […]” for “discarded.”
At the end of the first incubation period, ^3 H-MTX was added and the incubation was continued for an additional 10 minutes. […] After centrifugation for 10 minutes at 2,000 - 3,000 × G to pellet the charcoal, the radioactivity in the clear supernatant was determined by liquid scintillation counting. […]
The specificity of the binder was determined by incubating the following compounds in direct competitive and sequential binding assays with ^3 H-MTX: pteroylmonoglutamate (Folic Acid, Nutritional Biochemicals); 5-methyltetrahydrofolic acid (Sigma Chemical Co.); 5-formyltetrahydrofolicacid (Leucovorin, Lederle Co.); adenosine, guanylic acid, para-aminobenzoylglutamate and 6-carboxypterin (Sigma Chemical Co.); pteroylheptaglutamate and aminopterin.

[6] = biological target: T1, folic acid reductase (binder factor); assay: Reliability, recovery and sensitivity of the radiochemical ligand binding assay for MTX in serum and cerebrospinal fluid; parameters: species or system guinea pig; conditions: presence of ascorbic acid
Method: as §1

Endogenous MTX, CSF [1]: 8 Nanograms per ml
Structure (SMILES): CN(Cc1cnc2nc(N)nc(N)c2n1)c1ccc(C(=O)N[C@@H](CCC(=O)O)C(=O)O)cc1 [MTX, N-[p-(2,4-diamino-6-pteridylmethyl)methylaminobenzoyl]-glutamic acid]

Structure (SMILES): NC(=O)c1ccc[n+]([C@@H]2O[C@H](COP(=O)([O-])OP(=O)(O)OC[C@H]3O[C@@H](n4cnc5c(N)ncnc54)[C@H](O)[C@@H]3O)[C@@H](O)[C@H]2O)c1 [NAD, nicotinamide adenine dinucleotide]
binding of ^3H-MTX with cofactor substituted for NADPH2 [2]: did not allow binding of ^3 H-MTX
inhibition of the MTX binding reaction [2]: did not inhibit the binding reaction

maximum binding of MTX obtained with cofactor substituted for NADPH2 ([2]; concentrations up to 200,000 times the optimal amount of NADPH2): 40%
Structure (SMILES): NC(=O)C1=CN([C@@H]2O[C@H](COP(=O)(O)OP(=O)(O)OC[C@H]3O[C@@H](n4cnc5c(N)ncnc54)[C@H](O)[C@@H]3O)[C@@H](O)[C@H]2O)C=CC1 [NADH]

Structure (SMILES): NC(=O)c1ccc[n+]([C@@H]2O[C@H](COP(=O)([O-])OP(=O)(O)OC[C@H]3O[C@@H](n4cnc5c(N)ncnc54)[C@H](OP(=O)(O)O)[C@@H]3O)[C@@H](O)[C@H]2O)c1 [NADP, Nicotinamide adenine dinucleotide phosphate]
binding of ^3H-MTX with cofactor substituted for NADPH2 [2]: did not allow binding of ^3 H-MTX
inhibition of the MTX binding reaction [2]: did not inhibit the binding reaction

stability in buffer A with albumin [3]: stable for several days
Structure (SMILES): NC(=O)C1=CN([C@@H]2O[C@H](COP(=O)(O)OP(=O)(O)OC[C@H]3O[C@@H](n4cnc5c(N)ncnc54)[C@H](OP(=O)(O)O)[C@@H]3O)[C@@H](O)[C@H]2O)C=CC1 [NADPH2, reduced nicotinamide adenine dinucleotide phosphate]

binding of labeled folate by the binder preparation [4]: did not bind
Structure (SMILES): Nc1nc2ncc(CNc3ccc(C(=O)N[C@@H](CCC(=O)O)C(=O)O)cc3)nc2c(=O)[nH]1 [^3 H-folic acid]

binding of labeled folate by the binder preparation [4]: did not bind
Structure (SMILES): [14CH3]N1c2c([nH]c(N)nc2=O)NCC1CNc1ccc(C(=O)N[C@@H](CCC(=O)O)C(=O)O)cc1 (some centres unmarked) [^14 C-5-methyltetrahydrofolic acid]

Structure (SMILES): Nc1nc(N)c2nc(CNc3ccc(C(=O)N[C@@H](CCC(=O)O)C(=O)O)cc3)cnc2n1 [aminopterin, N-{p-[(2,4-diamino-6-pteridylmethyl)amino]benzoyl}-glutamic acid]
competition for ^3H-MTX binding sites [5]: competed for ^3 H-MTX binding sites

effect on the assay [6]: did not affect the assay
Structure (SMILES): O=C1O[C@H]([C@@H](O)CO)C(O)=C1O [ascorbic acid]

— US3981983A, “Rapid, radiochemical-ligand binding assay for methotrexate” (priority 1975, dated 1976)
